How the values were obtained:
[1] = tested on: U2OS; assay: cell viability relative to DMSO; higher = less toxic; details: 72 h
[2] = tested on: Calu-3; assay: as above; details: 72 h
[3] = tested on: HepG2; assay: as above; details: 72 h
[4] = tested on: Caco-2; assay: as above; details: 72 h
[5] = tested on: Vero E6; assay: as above; details: 72 h
[6] = tested on: U2OS; assay: drug sensitivity score (DSS) for viability; higher = more toxic; extreme values may be limits of the assay; details: 72 h
[7] = tested on: Calu-3; assay: as above; details: 72 h
[8] = tested on: HepG2; assay: as above; details: 72 h
[9] = tested on: Caco-2; assay: as above; details: 72 h
[10] = tested on: Vero E6; assay: as above; details: 72 h
[11] = tested on: A549-ACE2 infected with SARS-CoV-2; assay: SARS-CoV-2 infection rate relative to DMSO; higher = more infection; details: 24 h
[12] = tested on: A549-ACE2 infected with SARS-CoV-2; assay: morphology score (similarity to uninfected cells); higher = more like uninfected cells; details: 24 h
[13] = tested on: A549-ACE2 infected with SARS-CoV-2; assay: cell count relative to DMSO; higher = less toxic; details: 24 h
[14] = tested on: Calu-3; assay: relative viability EC50 (midpoint between 100% and the lowest measured viability); higher = less toxic; details: 72 h
[15] = tested on: Vero E6; assay: as above; details: 72 h
[16] = tested on: A549-ACE2; assay: drug-induced phospholipidosis relative to tamoxifen; higher = more phospholipidosis
[17] = tested on: A549-ACE2; assay: phospholipidosis EC50; higher = less potent phospholipidosis inducer
[18] = tested on: U2OS; assay: relative viability EC50 (midpoint between 100% and the lowest measured viability); higher = less toxic; details: 72 h
[19] = tested on: HepG2; assay: as above; details: 72 h
[20] = tested on: Caco-2; assay: as above; details: 72 h

O=C(NCCN1CCC2(CC1)C(=O)NCN2c1cccc(F)c1)c1ccc2ccccc2c1
Details	SARS-CoV-2 infection rate [%]	cell count [%]	cell viability [%]	morphology score	phospholipidosis EC50 [nM]
[1], 1 nM	–	–	101	–	–
[1], 10 nM	–	–	104	–	–
[1], 100 nM	–	–	97.7	–	–
[1], 1000 nM	–	–	100	–	–
[1], 10000 nM	–	–	71	–	–
[2], 1 nM	–	–	100	–	–
[2], 10 nM	–	–	102	–	–
[2], 100 nM	–	–	94.8	–	–
[2], 1000 nM	–	–	95	–	–
[2], 10000 nM	–	–	11.2	–	–
[3], 1 nM	–	–	104	–	–
[3], 10 nM	–	–	106	–	–
[3], 100 nM	–	–	102	–	–
[3], 1000 nM	–	–	85.9	–	–
[3], 10000 nM	–	–	54.5	–	–
[4], 1 nM	–	–	102	–	–
[4], 10 nM	–	–	93.5	–	–
[4], 100 nM	–	–	95.2	–	–
[4], 1000 nM	–	–	90.8	–	–
[4], 10000 nM	–	–	52.4	–	–
[5], 1 nM	–	–	103	–	–
[5], 10 nM	–	–	95.6	–	–
[5], 100 nM	–	–	97.4	–	–
[5], 1000 nM	–	–	96.4	–	–
[5], 10000 nM	–	–	84.8	–	–
[11], 0.3 µM	107	–	–	–	–
[11], 3 µM	35	–	–	–	–
[11], 10 µM	20	–	–	–	–
[11], 30 µM	48	–	–	–	–
[12], 0.3 µM	–	–	–	-0.21	–
[12], 3 µM	–	–	–	0.7	–
[12], 10 µM	–	–	–	0.39	–
[12], 30 µM	–	–	–	0.06	–
[13], 0.3 µM	–	96	–	–	–
[13], 3 µM	–	115	–	–	–
[13], 10 µM	–	93	–	–	–
[13], 30 µM	–	3	–	–	–
[17], 24 h	–	–	–	–	2210
[17], 48 h	–	–	–	–	3210
[17], 72 h	–	–	–	–	4550

Details	drug sensitivity score	relative viability EC50 [nM]
[6]	1.2	–
[7]	5.7	–
[8]	4.4	–
[9]	4	–
[10]	0.5	–
[14]	–	2720
[15]	–	> 10000

drug-induced phospholipidosis [%], [16]
Details	0.3 µM	0.833333 µM	3.33333 µM	6.66667 µM	10 µM	30 µM
24 h	1.19	9.12	93.1	112	127	127
48 h	2.88	7.95	76.2	107	140	134
72 h	2.25	6.48	52.3	100	120	–

Nc1ncnc2c1c(-c1cccc(OCc3ccccc3)c1)cn2C1CC(CN2CCCC2)C1 (stereo in doubt) [NVP-ADW742]
Details	SARS-CoV-2 infection rate [%]	cell count [%]	cell viability [%]	morphology score	phospholipidosis EC50 [nM]
[1], 1 nM	–	–	99.1	–	–
[1], 10 nM	–	–	98	–	–
[1], 100 nM	–	–	99	–	–
[1], 1000 nM	–	–	88.9	–	–
[1], 10000 nM	–	–	43.7	–	–
[2], 1 nM	–	–	99.2	–	–
[2], 10 nM	–	–	93.1	–	–
[2], 100 nM	–	–	107	–	–
[2], 1000 nM	–	–	102	–	–
[2], 10000 nM	–	–	44.2	–	–
[3], 1 nM	–	–	89.3	–	–
[3], 10 nM	–	–	97.4	–	–
[3], 100 nM	–	–	101	–	–
[3], 1000 nM	–	–	69.9	–	–
[3], 10000 nM	–	–	23.2	–	–
[4], 1 nM	–	–	98.9	–	–
[4], 10 nM	–	–	96.1	–	–
[4], 100 nM	–	–	98.4	–	–
[4], 1000 nM	–	–	74.6	–	–
[4], 10000 nM	–	–	34.1	–	–
[5], 1 nM	–	–	99.9	–	–
[5], 10 nM	–	–	95.6	–	–
[5], 100 nM	–	–	97.6	–	–
[5], 1000 nM	–	–	98.1	–	–
[5], 10000 nM	–	–	58.2	–	–
[11], 0.1 µM	98	–	–	–	–
[11], 0.3 µM	94	–	–	–	–
[11], 1 µM	75	–	–	–	–
[11], 3 µM	30	–	–	–	–
[12], 0.1 µM	–	–	–	0.14	–
[12], 0.3 µM	–	–	–	0.2	–
[12], 1 µM	–	–	–	0.46	–
[12], 3 µM	–	–	–	0.75	–
[13], 0.1 µM	–	104	–	–	–
[13], 0.3 µM	–	93	–	–	–
[13], 1 µM	–	82	–	–	–
[13], 3 µM	–	101	–	–	–
[17], 24 h	–	–	–	–	5360
[17], 72 h	–	–	–	–	3260

Details	drug sensitivity score	relative viability EC50 [nM]
[6]	4.9	–
[7]	2.9	–
[8]	8.3	–
[9]	7	–
[10]	2.4	–
[14]	–	3320
[18]	–	1750
[19]	–	1190
[20]	–	1230

drug-induced phospholipidosis [%], [16]
Details	0.3 µM	0.833333 µM	3.33333 µM	6.66667 µM	10 µM	30 µM
24 h	8.61	13.3	31.4	113	145	158
48 h	8.35	9.24	33.7	54.9	–	–
72 h	7.79	5.46	31.5	52.2	–	–

O=C(c1ccc(Nc2nccc(-c3cc4ccccc4s3)n2)cc1)N1CCC(N2CCCC2)CC1 [IKK-16]
Details	SARS-CoV-2 infection rate [%]	cell count [%]	cell viability [%]	morphology score	phospholipidosis EC50 [nM]
[1], 1 nM	–	–	97.4	–	–
[1], 10 nM	–	–	95.5	–	–
[1], 100 nM	–	–	97.6	–	–
[1], 1000 nM	–	–	91.7	–	–
[1], 10000 nM	–	–	0.8	–	–
[3], 1 nM	–	–	95.9	–	–
[3], 10 nM	–	–	108	–	–
[3], 100 nM	–	–	91.6	–	–
[3], 1000 nM	–	–	86.9	–	–
[3], 10000 nM	–	–	-0.2	–	–
[4], 1 nM	–	–	97.6	–	–
[4], 10 nM	–	–	102	–	–
[4], 100 nM	–	–	98.9	–	–
[4], 1000 nM	–	–	79.8	–	–
[4], 10000 nM	–	–	9.4	–	–
[5], 1 nM	–	–	97.4	–	–
[5], 10 nM	–	–	99.5	–	–
[5], 100 nM	–	–	99.5	–	–
[5], 1000 nM	–	–	97.6	–	–
[5], 10000 nM	–	–	-0.2	–	–
[11], 0.1 µM	101	–	–	–	–
[11], 0.3 µM	104	–	–	–	–
[11], 1 µM	62	–	–	–	–
[11], 3 µM	19	–	–	–	–
[12], 0.1 µM	–	–	–	-0.12	–
[12], 0.3 µM	–	–	–	-0.2	–
[12], 1 µM	–	–	–	0.57	–
[12], 3 µM	–	–	–	0.49	–
[13], 0.1 µM	–	102	–	–	–
[13], 0.3 µM	–	93	–	–	–
[13], 1 µM	–	111	–	–	–
[13], 3 µM	–	109	–	–	–
[17], 24 h	–	–	–	–	1050
[17], 48 h	–	–	–	–	1530
[17], 72 h	–	–	–	–	1100

Details	drug sensitivity score	relative viability EC50 [nM]
[6]	6.8	–
[8]	7.7	–
[9]	8.2	–
[10]	5.9	–
[15]	–	2980
[18]	–	2480
[19]	–	2100
[20]	–	1640

drug-induced phospholipidosis [%], [16]
Details	0.3 µM	0.833333 µM	3.33333 µM	6.66667 µM	10 µM	30 µM
24 h	-2.91	8.17	163	140	179	55.6
48 h	-0.02	5.69	114	107	125	–
72 h	0.998	5.79	108	91.2	–	–

CC[C@@H](C(=O)[C@@H](C)[C@@H](O)[C@H](C)[C@@H]1O[C@@H]([C@@H](CC)C(=O)O)CC[C@@H]1C)[C@H]1O[C@]2(C=C[C@@H](O)[C@]3(CC[C@@](C)([C@H]4CC[C@](O)(CC)[C@H](C)O4)O3)O2)[C@H](C)C[C@@H]1C [Salinomycin (Procoxacin)]
Details	SARS-CoV-2 infection rate, [11] [%]	cell count, [13] [%]	cell viability, [1] [%]	cell viability, [2] [%]	cell viability, [3] [%]	cell viability, [4] [%]	cell viability, [5] [%]	morphology score, [12]
1 nM	–	–	100	87.9	121	100	109	–
10 nM	–	–	105	91.4	108	98.7	103	–
100 nM	–	–	89.2	80.6	103	69.5	104	–
0.3 µM	28	118	–	–	–	–	–	0.84
1000 nM	–	–	68.7	53.1	36.6	38.3	70.1	–
3 µM	19	110	–	–	–	–	–	0.8
10000 nM	–	–	22.6	26.5	25.3	17.3	44.7	–
10 µM	26	116	–	–	–	–	–	0.51
30 µM	54	101	–	–	–	–	–	0

Details	drug sensitivity score	relative viability EC50 [nM]
[6]	7.8	–
[7]	11.6	–
[8]	11.6	–
[9]	15.4	–
[10]	6.7	–
[14]	–	360
[15]	–	939
[18]	–	1230
[19]	–	513
[20]	–	224

drug-induced phospholipidosis [%], [16]
Details	0.3 µM	0.833333 µM	3.33333 µM	6.66667 µM	10 µM	30 µM
24 h	2.06	-1.22	-9.27	4.33	16.4	32
48 h	3.07	-6.1	-3.84	10.2	–	–
72 h	12.7	–	–	–	–	–
